# Source: patent US11039614B2, “Solid herbicide compositions containing fluroxypyr-meptyl” (Dow AgroSciences LLC, priority 2015, dated 2021)
# Assays:
# [1] = cited from earlier work
# [2] = Differential scanning calorimetry (DSC), degree of crystallinity; type: physicochemical
# Excerpt: The coated herbicide powder and the water dispersible granule compositions described herein include coated, solid particles of fluroxypyr-meptyl that are largely or nearly completely in crystalline form. The degree of crystallinity of the solid particles of fluroxypyr-meptyl in these compositions (i.e., the weight percent of the fluroxypyr-meptyl that is in crystalline form) can be determined by differential scanning calorimetry (DSC) analysis and comparing the thermal properties of these compositions to a crystalline, non-coated sample of fluroxypyr-meptyl. In some embodiments, the coated particles of fluroxypyr-meptyl in these compositions have a degree of crystallinity that is at least about 70%, at least about 80%, at least about 90%, at least about 91%, at least about 92%, at least about 93%, at least about 94%, at least about 95%, at least about 96%, at least about 97%, at least about 98%, or at least about 99% and is reached within about one day, within about 2 days, within about 3 days, within about 4 days, within about 5 days, within about 6 days, or within about 7 days from the time of preparation of these solid compositions. […]
smiles,measurement,setting,value
"CCCCCCC(C)OC(=O)COc1nc(F)c(Cl)c(N)c1Cl (centres unmarked) [Fluroxypyr-meptyl, 2-methylheptyl ester of 4-amino-3,5-dichloro-6-fluoro-2-pyridyloxyacetic acid]",solubility in water,[1],< 1 ppm
same,DSC Thermal Data: Heat Flow (absorbed),[2],70.01 J/g
